Laboratory results from patent publication US20250340574A1, “MODULATORS OF CYSTIC FIBROSIS TRANSMEMBRANE CONDUCTANCE REGULATOR” (Vertex Pharmaceuticals Incorporated, priority 2022, published 2025).
Read-outs that look alike come from different tables or passages of the source.

Legend:
[1] = amide bond, 13-membered ring, CDMT/NMM, DMF
[2] = target: T1, CFTR (F508del/MF-HBE cells) (Homo sapiens, UniProt P13569, DEL508-508); assay: Ussing chamber assay of CFTR-mediated short-circuit currents, Assay A (0.1 μM to 25 μM, 6 concentrations); format: cell-based; conditions: with 33 nM potentiator and 18 μM Tezacaftor, 20% human serum; for Emax: 18-24 hours, read-out: A Max activity (%)
T1 construct: human bronchial epithelial (HBE) cells derived from CF subjects heterozygous for F508del and a minimal function CFTR mutation (F508del/MF-HBE); endogenous in cells; host or cells: Primary human bronchial epithelial cells from CF subjects (F508del/MF genotype), differentiated at an air-liquid interface
How it was run: (§1)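 Short-circuit current was recorded at 37 °C under voltage clamp (0 mV) with amiloride 30 μM apically, forskolin 20 μM activation, then BPO/GlyH-101/inh-172 (20 μM each) to isolate CFTR current. Before recording, corrector exposure lasted 18–24 h with 18 μM tezacaftor, 20% human serum, and 33 nM (dose–response) or 44 nM (1 μM fixed) potentiator, maintained throughout.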

[3] = target: T1, CFTR (F508del/MF-HBE cells); assay: Ussing chamber assay of CFTR-mediated short-circuit currents, Assay C (0.026 μM to 25 μM, 6 concentrations); format: cell-based; conditions: with 33 nM potentiator and 18 μM Tezacaftor, 20% human serum; for Emax: read-out: C Max activity (%)
How it was run: as §1

[4] = target: T1, CFTR (F508del/MF-HBE cells); assay: Ussing chamber assay of CFTR-mediated short-circuit currents, Assay D (single concentration of 1 μM); format: cell-based; conditions: with 44 nM potentiator and 18 μM Tezacaftor, 20% human serum
How it was run: as §1

T1 sequence (P13569 with tags, fused parts or gaps DEL508-508): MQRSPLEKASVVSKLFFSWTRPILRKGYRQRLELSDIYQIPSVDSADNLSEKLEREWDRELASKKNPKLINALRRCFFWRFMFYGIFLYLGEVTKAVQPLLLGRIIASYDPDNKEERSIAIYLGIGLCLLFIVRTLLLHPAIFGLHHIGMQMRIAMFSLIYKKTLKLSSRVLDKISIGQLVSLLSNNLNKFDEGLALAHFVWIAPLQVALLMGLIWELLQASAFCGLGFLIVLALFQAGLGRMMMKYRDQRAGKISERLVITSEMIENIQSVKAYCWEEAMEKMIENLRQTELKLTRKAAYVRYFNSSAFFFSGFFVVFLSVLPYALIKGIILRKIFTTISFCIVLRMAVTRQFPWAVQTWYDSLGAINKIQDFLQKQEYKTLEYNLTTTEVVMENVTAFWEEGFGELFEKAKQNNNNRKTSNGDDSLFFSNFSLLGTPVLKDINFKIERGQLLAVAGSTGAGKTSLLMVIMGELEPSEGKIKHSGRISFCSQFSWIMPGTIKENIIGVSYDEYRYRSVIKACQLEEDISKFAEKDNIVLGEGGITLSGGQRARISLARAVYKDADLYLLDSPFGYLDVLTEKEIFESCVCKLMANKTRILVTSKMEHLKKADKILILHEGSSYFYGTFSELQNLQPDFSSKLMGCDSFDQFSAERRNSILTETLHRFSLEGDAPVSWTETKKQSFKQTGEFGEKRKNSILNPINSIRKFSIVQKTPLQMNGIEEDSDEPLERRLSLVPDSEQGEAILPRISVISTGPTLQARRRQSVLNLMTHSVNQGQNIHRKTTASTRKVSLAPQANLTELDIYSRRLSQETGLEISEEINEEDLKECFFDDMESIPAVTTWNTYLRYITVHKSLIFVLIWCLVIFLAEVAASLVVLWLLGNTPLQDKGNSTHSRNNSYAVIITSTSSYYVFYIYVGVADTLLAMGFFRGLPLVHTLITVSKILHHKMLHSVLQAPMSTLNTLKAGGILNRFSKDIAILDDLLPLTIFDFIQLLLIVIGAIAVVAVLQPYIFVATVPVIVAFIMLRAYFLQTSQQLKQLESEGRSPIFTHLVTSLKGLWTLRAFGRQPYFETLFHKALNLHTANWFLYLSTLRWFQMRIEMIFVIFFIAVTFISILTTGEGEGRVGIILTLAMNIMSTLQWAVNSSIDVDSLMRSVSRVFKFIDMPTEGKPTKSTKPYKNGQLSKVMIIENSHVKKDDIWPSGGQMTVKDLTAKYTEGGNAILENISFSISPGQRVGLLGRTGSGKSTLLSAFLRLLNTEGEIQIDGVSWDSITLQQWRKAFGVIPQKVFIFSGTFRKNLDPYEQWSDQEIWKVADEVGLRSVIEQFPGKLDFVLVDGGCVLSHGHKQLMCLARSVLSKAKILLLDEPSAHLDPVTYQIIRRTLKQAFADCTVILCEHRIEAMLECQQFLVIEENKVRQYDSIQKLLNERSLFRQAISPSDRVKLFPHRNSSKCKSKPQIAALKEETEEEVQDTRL

Emax [2] [%] | EC50 [2] [nM] | EC50 [3] [nM] | Emax [3] [%] | D act. at 1 μM (%) [4] | Structure (SMILES) | also measured
> 60 | < 1000 | – | – | – | Cc1cccc(C)c1-c1cc2nc(n1)NS(=O)(=O)c1cccc(c1)C(=O)N(Cc1nc3c(cc1F)cc(C(C)C)n3C)[C@H](CC13CC(C1)C3)CO2 [Compound I-87, (11R)-11-(1-bicyclo[1.1.1]pentanylmethyl)-6-(2,6-dimethylphenyl)-12-[(5-fluoro-2-isopropyl-1-methyl-pyrrolo[2,3-b]pyridin-6-yl)methyl]-2,2-dioxo-9-oxa-2λ^6-thia-3,5,12,19-tetrazatricyclo[12.3.1.14,8]nonadeca-1(18),4(19),5,7,14,16-hexaen-13-one] | ring closure, yield after HPLC ([1]; from Cc1cccc(C)c1-c1cc(OC[C@@H](CC23CC(C2)C3)NCc2nc3c(cc2F)cc(C(C)C)n3C)nc(NS(=O)(=O)c2cccc(C(=O)O)c2)n1, 10.7 mM, 24.5 h): 39%
> 60 | < 1000 | – | – | – | Cc1cccc(C)c1-c1cc2nc(n1)NS(=O)(=O)c1cccc(c1)C(=O)N(Cc1cnc3oc(C)c(C4CC4)c3n1)[C@H](COC(C)C)CO2 [Compound I-26, (11R)-12-[(7-cyclopropyl-6-methyl-furo[2,3-b]pyrazin-2-yl)methyl]-6-(2,6-dimethylphenyl)-11-(isopropoxymethyl)-2,2-dioxo-9-oxa-2λ^6-thia-3,5,12,19-tetrazatricyclo[12.3.1.14,8]nonadeca-1(18),4(19),5,7,14,16-hexaen-13-one] | ring closure, yield after HPLC ([1]; from Cc1cccc(C)c1-c1cc(OC[C@@H](COC(C)C)NCc2cnc3oc(C)c(C4CC4)c3n2)nc(NS(=O)(=O)c2cccc(C(=O)O)c2)n1, 12.8 mM, 16.5 h): 61%
– | – | < 1000 | – | – | Cc1cccc(C)c1-c1cc2nc(n1)NS(=O)(=O)c1cccc(c1)C(=O)N(Cc1cnc3cc(C4(C)CC4)n(C)c3n1)[C@H](CC13CC(C1)C3)CO2 [Compound I-227, (11R)-11-(1-Bicyclo[1.1.1]pentanylmethyl)-6-(2,6-dimethylphenyl)-12-[[5-methyl-6-(1-methylcyclopropyl)pyrrolo[2,3-b]pyrazin-3-yl]methyl]-2,2-dioxo-9-oxa-2λ^6-thia-3,5,12,19-tetrazatricyclo[12.3.1.14,8]nonadeca-1(18),4(19),5,7,14,16-hexaen-13-one] | ring closure, yield after HPLC ([1]; from Cc1cccc(C)c1-c1cc(OC[C@@H](CC23CC(C2)C3)NCc2cnc3cc(C4(C)CC4)n(C)c3n2)nc(NS(=O)(=O)c2cccc(C(=O)O)c2)n1, 25.0 °C): 66%; Emax ([3]; 18-24 hours): > 60%; D activity at 1 μM (%) ([4]; 18-24 hours): +++ (+++ is >60%)
– | – | < 1000 | > 60 | +++ (+++ is >60%) | CCc1c2nc(nc1-c1c(C)cccc1C)NS(=O)(=O)c1cccc(c1)C(=O)N(Cc1cnc3cc(C(C)(C)C)n(C)c3n1)[C@H](COC(C)C)CO2 [IV-4, (11R)-12-[(6-tert-butyl-5-methyl-pyrrolo[2,3-b]pyrazin-3-yl)methyl]-6-(2,6-dimethylphenyl)-7-ethyl-11-(isopropoxymethyl)-2,2-dioxo-9-oxa-2λ^6-thia-3,5,12,19-tetrazatricyclo[12.3.1.14,8]nonadeca-1(17),4(19),5,7,14(18),15-hexaen-13-one] | ring closure, yield after HPLC ([1]; from CCc1c(OC[C@@H](COC(C)C)NCc2cnc3cc(C(C)(C)C)n(C)c3n2)nc(NS(=O)(=O)c2cccc(C(=O)O)c2)nc1-c1c(C)cccc1C, 10.0 mM, 25.0 °C, 3.5 h): 20%
– | – | < 1000 | > 60 | +++ (+++ is >60%) | Cc1cccc(C)c1-c1cc2nc(n1)NS(=O)(=O)c1cccc(c1)C(=O)N(Cc1ncc3cc(C(C)(C)C)n(C)c3n1)[C@H](CC13CC(C1)C3)CO2 [IV-35, (11R)-11-(1-bicyclo[1.1.1]pentanylmethyl)-12-[(6-tert-butyl-7-methyl-pyrrolo[2,3-d]pyrimidin-2-yl)methyl]-6-(2,6-dimethylphenyl)-2,2-dioxo-9-oxa-2λ^6-thia-3,5,12,19-tetrazatricyclo[12.3.1.14,8]nonadeca-1(18),4(19),5,7,14,16-hexaen-13-one] | ring closure, yield after HPLC ([1]; from Cc1cccc(C)c1-c1cc(OC[C@@H](CC23CC(C2)C3)NCc2ncc3cc(C(C)(C)C)n(C)c3n2)nc(NS(=O)(=O)c2cccc(C(=O)O)c2)n1, 9.95 mM, 25.0 °C, 16.5 h): 27%
– | – | 1000 to 3000 | > 60 | +++ (+++ is >60%) | CCC(CC)[C@@H]1COc2cc(-c3c(C)cccc3C)nc(n2)NS(=O)(=O)c2cccc(c2)C(=O)N1Cc1cnc2oc(C(C)(C)C)cc2n1 [IV-48, (11R)-12-[(6-tert-butylfuro[2,3-b]pyrazin-2-yl)methyl]-6-(2,6-dimethylphenyl)-11-(1-ethylpropyl)-2,2-dioxo-9-oxa-2λ^6-thia-3,5,12,19-tetrazatricyclo[12.3.1.14,8]nonadeca-1(18),4,6,8(19),14,16-hexaen-13-one] | ring closure, yield after HPLC ([1]; from CCC(CC)[C@H](COc1cc(-c2c(C)cccc2C)nc(NS(=O)(=O)c2cccc(C(=O)O)c2)n1)NCc1cnc2oc(C(C)(C)C)cc2n1, 11.1 mM, 25.0 °C, 18.0 h): 52%
> 60 | < 1000 | – | – | – | Cc1cccc(C)c1-c1cc2nc(n1)NS(=O)(=O)c1cccc(c1)C(=O)N(Cc1cnc3oc(C(C)C)cc3n1)[C@H](CCC1(C)CCC1)CO2 [Compound I-13, (11R)-6-(2,6-dimethylphenyl)-12-[(6-isopropylfuro[2,3-b]pyrazin-2-yl)methyl]-11-[2-(1-methylcyclobutyl)ethyl]-2,2-dioxo-9-oxa-2λ^6-thia-3,5,12,19-tetrazatricyclo[12.3.1.14,8]nonadeca-1(18),4(19),5,7,14,16-hexaen-13-one] | ring closure, yield after HPLC ([1]; from Cc1cccc(C)c1-c1cc(OC[C@@H](CCC2(C)CCC2)NCc2cnc3oc(C(C)C)cc3n2)nc(NS(=O)(=O)c2cccc(C(=O)O)c2)n1, 13.5 mM, 16.5 h): 37%
> 60 | < 1000 | – | – | – | Cc1cccc(C)c1-c1cc2nc(n1)NS(=O)(=O)c1cccc(c1)C(=O)N(Cc1cnc3oc(C(C)C)c(C)c3n1)[C@H](CC13CC(C1)C3)CO2 [Compound I-62, (11R)-11-(1-bicyclo[1.1.1]pentanylmethyl)-6-(2,6-dimethylphenyl)-12-[(6-isopropyl-7-methyl-furo[2,3-b]pyrazin-2-yl)methyl]-2,2-dioxo-9-oxa-2λ^6-thia-3,5,12,19-tetrazatricyclo[12.3.1.14,8]nonadeca-1(18),4(19),5,7,14,16-hexaen-13-one] | ring closure, yield after HPLC ([1]; from Cc1cccc(C)c1-c1cc(OC[C@@H](CC23CC(C2)C3)NCc2cnc3oc(C(C)C)c(C)c3n2)nc(NS(=O)(=O)c2cccc(C(=O)O)c2)n1, 39.5 mM, 14.0 h): 70%
